According to US20040197335A1, “Non-myeloablative tolerogenic treatment with tyrphostins” (priority 2003, published 2004):

Columns and labels:
[1] = test system: Mice with donor skin graft; experiment: Skin grafting after tolerogenic treatment (TLI, donor bone marrow cells, tyrphostin, cyclophosphamide); format: in vivo; design: Survivors after 50 days / Survivors after 50 days (%) / Survivors after 100 days / Survivors after 100 days (%): dose or concentration left out as unconfirmed
[2] = test system: Human PBMC incubated with MHC-mismatched PBMC; experiment: One-way mixed lymphocyte reaction (primary MLR), [3H]TdR uptake; format: cell-based; conditions: for % response (alloreactive relative response, cpm with/without tyrphostin x100): FIG. 2, response without tyrphostin = 100%; for cpm: no tyrphostin 10,734 cpm
Description: Cell sources: Human peripheral blood mononuclear cells (PBMC) were obtained from healthy human donors after separation on Ficoll-Paque density gradient essentially as described in Boyum, A. Scand. J Lab. Invest. […] Reagents:
One-way mixed lymphocyte reaction (MLR assay): Responding cells derived from donor A (5×10^4) were cultured in round-bottom microwell plates with an equal number (5×10^4) of irradiated (6000 cGy) donor B PBMC with and without tyrphostins. […] During the last 18 hours of incubation, cultures were pulsed with 2 μCi of [^3H] TdR.
(§1) Harvesting and radioactivity determination: Harvesting was carried out by a multiple-sample cell harvester and radioactivity, expressed in counts per minutes (cpm), was determined in a liquid scintillation β-counter.
Human PBMC were incubated either with autologous or with MHC-mismatched PBMC in a one-way MLR assay, with and without various concentrations of tyrphostins, as is described hereinabove.
In this case, the alloreactive response without the tyrphostins was considered as 100% response. Percentage of response was calculated according to the following formula: b/a×100; where a=cpm in cultures without tyrphostin, b=cpm in cultures with tyrphostin.

[3] = test system: Human PBMC stimulated with phytohemagglutinin (PHA); experiment: Primary mitogenic response assay (PHA), [3H]TdR uptake; format: cell-based; conditions: Table 6, tyrphostin 20 μM
Description: Mitogens: Phytohemagglutinin (PHA) and concanavalin A (Con-A) were dissolved in saline and diluted to their final concentration in culture medium. Anti-CD3 (OK3 stock solution 1 μg/ml) was diluted to 0.2 μg/ml final concentration in culture medium.
Responding PBMC cells (10^5) derived from donor A were cultured in flat-bottom microwell plates with and without tyrphostins, and with phytohemagglutinin (PHA) 1 μg/ml, or concanavalin A 18 μg/ml. […] During the last 18 hours of incubation, cultures were pulsed with 1 μCi of [^3H] TdR.
as §1

[4] = test system: donor A anti-donor B-primed human PBMC vs donor B PBMC; experiment: Secondary MLR of alloantigen-primed PBMC against priming donor B; format: cell-based; conditions: then removed, priming without tyrphostin = 100%
Description: (§2) PBMC from donor A (10×10^6) were stimulated with equal number of irradiated (6000 cGy) donor B PBMC, with and without tyrphostins, in a total volume of 20 ml culture medium supplemented with 10% heat inactivated human AB^+ serum (mixed lymphocyte culture, MLC). Cultures were placed vertically in 25 cm tissue culture flasks in a 5% CO2, humidified incubator at 37° C. After 10 days, cells were washed twice to remove the tyrphostin, and tested for their ability to respond in the MLR and the primary mitogenic response assay described hereinabove.
(§3) The alloreactivity of donor A anti-donor B-primed cells (5×10^4) was tested in a 6-day one-way primary MLR assay against third party unrelated donor C PBMC (10^5), or against donor A cells (background control). Cultures were placed in round-bottom microwell plates. On day 5, cultures were pulsed with 2 μCi [^3H] TdR/well for 16-18 hours and then harvested. […] After 48 hours at 37° C. in a 5% CO2 humidified incubator, cultures were pulsed with 2 μCi [^3H] TdR for another 16-18 hours and then harvested.
as §1
(§4) […] After 10 days the tyrphostin was removed and the primed cells were tested for their ability to respond in a secondary MLR assay against the priming (donor B) alloantigens, in a primary MLR assay against third party unrelated alloantigens (donor C), and to non-specific stimulation in a mitogenic assay. […] Percentage of response was calculated according to the formula described above.

[5] = test system: donor A anti-donor B-primed human PBMC vs third party unrelated donor C PBMC; experiment: Primary MLR of alloantigen-primed PBMC against third party unrelated donor C; format: cell-based; conditions: then removed, priming without tyrphostin = 100%
Description: as §2, §3, §1, §4

[6] = test system: donor A anti-donor B-primed human PBMC stimulated with PHA; experiment: Mitogenic response (PHA) of alloantigen-primed PBMC; format: cell-based; conditions: then removed, priming without tyrphostin = 100%
Description: as §2
Cultures were incubated for 48 hours in a total volume of 0.2 ml culture medium supplemented with 10% heat-inactivated human AB^+ serum at 37° C. in a 5% CO2 humidified incubator, pulsed for 16-18 hours with 1 μCi [^3H]TdR/well, and then harvested.
as §1, §4

[7] = primed 10 days with tyrphostin 25 μM
[8] = primed 10 days with tyrphostin 50 μM

Compound	effectiveness of sub-optimal dose by itself ([1]; mouse, in vivo, 100 mg/kg)	% response (alloreactive relative response, cpm with/without tyrphostin x100) ([2]; primary MLR, tyrphostin 10 μM)	% response (alloreactive relative response, cpm with/without tyrphostin x100) ([2]; primary MLR, tyrphostin 50 μM)	inhibition at 25 µM ([2]; Homo sapiens, PBMC, 144 h, Table 2, primary MLR, tyrphostin 25 μM)	inhibition at 50 µM ([2]; Homo sapiens, PBMC, 144 h, Table 2, primary MLR, tyrphostin 50 μM)	IC50 ([2]; Homo sapiens, PBMC, Table 5, some values marked (mean), read-out: IC 50% (inhibition of Primary MLR))	cpm ([2]; Table 2, primary MLR, tyrphostin 25 μM)	cpm ([2]; Table 2, primary MLR, tyrphostin 50 μM)	inhibition at 20 µM ([3]; Homo sapiens, PBMC, 96 h, mitogenic response)	cpm ± SD ([3]; PHA without tyrphostin 14,959±644, medium 155±37)	% Response to primary stimulator [4, 7]	% Response to primary stimulator [4, 8]	% Response to unrelated stimulator [5, 7]	% Response to unrelated stimulator [5, 8]	% Response to PHA [6, 7]	% Response to PHA [6, 8]	Survivors after 50 days (%) ([1]; mice, s.c.)	Survivors after 100 days (%) ([1]; mice, s.c.)	Survivors after 50 days ([1]; mice, s.c., survivors/total)	Survivors after 100 days ([1]; mice, s.c., survivors/total)
O=P1(N(CCCl)CCCl)NCCCO1 (centres unmarked) [cyclophosphamide, reference compound]	ineffective	–	–	–	–	–	–	–	–	–	–	–	–	–	–	–	–	–	–	–
N#CC(=Cc1ccc(O)c(O)c1)C(=O)NCc1ccccc1 [Tyr 1, N-benzyl-2-cyano-3-(3,4-dihydroxyphenyl)-acrylamide]	–	40%	4%	77%	89%	45 µM	2,420 cpm	1,132 cpm	60%	6,023 ± 876 cpm	22 ± 14%	19 ± 10%	99 ± 29^ %	175 ± 77%	290 ± 111^ %	176 ± 50%	(20%)	(20%)	1/5	1/5
